In PMC6337391 (Molecules, 2019):

How the values were obtained:
[1] = Reducing activity with the stable radical DPPH
Description: The chalcones were studied for the antioxidant activity (reducing activity RA%) by the use of the stable free radical 2,2-diphenyl-1-picrylhydrazyl radical (DPPH) at concentrations 0.05 mM after 20 and 60 min (Table 2). In this procedure, the dominant chemical reaction involved is the reduction of the DPPH radical by single electron transfer from the antioxidant. […] For the sake of comparison, we measured the RA% values for the intermediate double ethers d which were included in the Table 2.
To a solution of DPPH (final concentration 0.05 mM) in absolute ethanol an equal volume of the compounds solution in DMSO (stock solution 10 mM) dissolved in ethanol was added. Absolute ethanol was used as a control. The concentrations of the solutions of the compounds were 0.05 and 0.1 mM. The absorbance was recorded at 517 nm at room temperature after 20 and 60 min [29] (Table 2).

[2] = ABTS•+ decolorization assay
Description: The decolorization assay is used to evaluate the antioxidant activity. The ABTS^•+ cationic radical is derived from the direct oxidation of ABTS by potassium persulfate. No involvement of an intermediary radical is observed. The addition of electron-donating antioxidants reduce ABTS^•+.
Stock solutions of the tested compounds in DMSO (10 mM) were diluted. […] aliquots of each sample were added into the ABTS·^+ solution and the absorbance was recorded at room temperature. Trolox was used as a standard.

[3] = Inhibition of linoleic acid lipid peroxidation (AAPH)
Description: The water soluble 2,2′-azobis(2-amidinopropane) hydrochloride (AAPH) generates in vitro free radicals through spontaneous thermal decomposition. […] Overall, chalcones a, b, and c present anti-lipid peroxidation activity. […] The inhibiting activities for the rest b chalcones ranged from 15–44%. The intermediate ethers are moderate inhibitors. […] This might be correlated with the presence of the double C=C–COCH3 group. […] Both have a long ether chain in their structure.
In an aqueous solution spectrophotometrically at 234 nm the production of conjugated diene hydro peroxide by oxidation of sodium linoleate was monitored and recorded according to our previous published experimental conditions, using 10 µL of the 16 mM sodium linoleate solution added to the UV cuvette containing 930 μL of 0.05 M phosphate buffer, pH 7.4 pre-thermostated at 37 °C, under air by the addition of 50 μL of 40 mM AAPH solution, which was used as a free radical initiator. Ten microliters (10 μL) of the appropriate solutions of the tested compounds were added in the mixture, whereas same level of DMSO was used as a blank for the measurement of lipid oxidation. The rate of oxidation at 37 °C was monitored by recording the increase in absorption at 234 nm caused by conjugated diene hydro peroxides.

[4] = molecular target: T1, soybean lipoxygenase (Glycine max, UniProt P08170); assay: biochemical; format: biochemical; conditions: soybean LOX
T1 sequence (P08170 1-839): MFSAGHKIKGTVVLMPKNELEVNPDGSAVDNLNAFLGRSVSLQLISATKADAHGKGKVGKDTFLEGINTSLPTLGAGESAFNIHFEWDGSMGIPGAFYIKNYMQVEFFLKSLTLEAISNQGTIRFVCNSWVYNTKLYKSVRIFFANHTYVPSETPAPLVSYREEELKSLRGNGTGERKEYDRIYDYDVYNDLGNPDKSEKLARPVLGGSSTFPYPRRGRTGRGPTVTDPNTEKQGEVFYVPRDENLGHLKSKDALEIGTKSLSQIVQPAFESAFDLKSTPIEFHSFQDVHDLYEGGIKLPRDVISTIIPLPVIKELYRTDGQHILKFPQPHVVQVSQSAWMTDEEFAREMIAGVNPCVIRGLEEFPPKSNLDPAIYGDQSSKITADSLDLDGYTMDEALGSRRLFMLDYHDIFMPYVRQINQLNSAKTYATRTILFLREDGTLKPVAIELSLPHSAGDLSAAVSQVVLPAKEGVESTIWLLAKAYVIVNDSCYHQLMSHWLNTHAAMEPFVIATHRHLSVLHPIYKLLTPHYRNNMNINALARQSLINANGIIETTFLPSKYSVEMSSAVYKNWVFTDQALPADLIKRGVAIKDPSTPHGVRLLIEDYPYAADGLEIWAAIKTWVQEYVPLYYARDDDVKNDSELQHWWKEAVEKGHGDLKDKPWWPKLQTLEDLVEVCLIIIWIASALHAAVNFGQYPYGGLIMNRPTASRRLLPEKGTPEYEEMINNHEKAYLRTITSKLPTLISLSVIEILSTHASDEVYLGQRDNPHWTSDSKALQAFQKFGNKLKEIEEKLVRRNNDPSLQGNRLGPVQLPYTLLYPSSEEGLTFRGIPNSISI
Description: In our experiments we used soybean lipoxygenase. Designing agents to modulate activities of the variety of so closely homologous enzymes, such as different LOXs, require an intimate knowledge of their 3D structures, as well as information about metabolism of the potential xenobiotics. […] Due to lack of sufficiently-purified human enzymes most of the research has been done on soybean LOX [52, 53]. Although this enzyme is not identical to the mammalian one, it seems that there is a sufficient qualitative correlation between values for enzyme inhibition with the two enzymes.
In vitro study was evaluated as reported previously. The tested compounds as stock solutions were dissolved in DMSO. Ten microliters (10 μL) were incubated at room temperature with sodium linoleate ([…]) and 0.2 mL of enzyme solution (1/9 × 10^−4 w/v in saline) in buffer pH 9 (tris) at room temperature (final volume 1 mL). […] Several concentrations were used for the determination of IC50 values.

[5] = test system: L929 mouse fibroblasts cells; assay: Cytotoxicity, propidium iodide fluorescence method; format: cell-based; conditions: 24-h incubation
Description: The cytotoxicity of the synthesized derivatives against L929 mouse fibroblasts cells was determined using the propidium iodide (PI) fluorescence method in the presence of different concentrations (1–100 μM) of these compounds. The results are presented in Table 4 in the form of the % cell survival values as PI% for the examined compounds. […] Chalcones c7, c8, c11, and c12 follow.
L929 mouse fibroblasts cells were cultured in EMEM supplemented with 10% horse serum, 2 mM L-glutamine, 1 mM sodium pyruvate, 0.1 mM nonessential amino acids, 1.5 g/L sodium bicarbonate, and 100 μg/mL penicillin–streptomycin at 37 °C in a humidified atmosphere with 5% CO2. L929 cells were plated into 24-well plates at a density […] and allowed to attach and grow for 24 h. The supernatant in each well then replaced with medium containing various concentrations (1, 10, 20, 50 and 100 μM) of compounds a5–12, c5–12, di, and dii–dvi, which presented the more interesting results in the in vitro experiments. After 24-h incubation, the supernatant was removed and the cells were washed with PBS. The cells were detached with 0.25% trypsin, transferred to FACS tubes, and then centrifuged (1600 rpm for 5 min) and the pellet washed with PBS. After washing, the cells in the pellet were incubated with 5 μL propidium iodide (PI) solution (1 mg/mL) for 1 min. The PI fluorescence (cell death) was determined with flow cytometry, FACS Calibur, Coulter Epics XL-MCL (Beckman, Inc., Mount Holly, NJ, USA). The analysis of flow cytometry data was performed with the WinMDI analysis program (Table 4).

[6] = Lipophilicity as RM values by RP-TLC; format: physicochemical; set-up: key: RM = log[(1/Rf) − 1]; conditions: methanol/water 70/30, SD < 10%
Description: It is well-documented and discussed in the literature that lipophilicity is a very significant physicochemical property which may critically affect distribution, bioavailability, metabolic activity and elimination, all the useful characteristics for the kinetics of biologically active compounds. Thus, we attempted to determine experimentally the lipophilicity of the synthesized compounds from the RPTLC method as RM values. The method is considered to be a reliable, fast and convenient method for expressing lipophilicity. Moreover, many calculated methods were used in order to predict the logP value.
Reversed phase TLC (RP-TLC) was performed on silica gel plates impregnated with 5% (v/v) liquid paraffin in light petroleum ether. The mobile phase was a methanol/water mixture (70/30, v/v). The plates were developed in closed chromatography tanks saturated with the mobile phase at 24 °C. Spots were detected under UV light. Five individual measurements of Rf values were recorded and used for the determination of RM using the equation RM = log [(1/Rf) − 1]. (Table 3).

Row | SMILES | RA% 100 μM 20 min [1] | RA% 100 μM 60 min [1] | ABTS•+ Inhb. % @ 100 μM [2] | AAPH% @ 100 μM (anti-lipid peroxidation) [3] [%] | % LOX Inhb. @ 100 μM [4] [%] | 1 μM Average (% pi) ± σ [5] [%] | 20 μM Average (% pi) ± σ [5] [%] | 50 μM Average (% pi) ± σ [5] [%] | 100 μM Average (% pi) ± σ [5] [%] | RM [6] | 10 μM Average (% pi) ± σ ([5]; 10 μM) [%] | IC50 ([4]; read-out: LOX IC50) [µM]
1 | O=C(/C=C/c1cccs1)c1ccc(O)cc1 [a5, (E)-1-(4-hydroxyphenyl)-3-(thiophen-2-yl) prop-2-en-1-one] | 17% | 3% | No | 23 | 9 | 11.36 ± 0.62 | 28.32 ± 2.91 | 36.15 ± 2.33 | 36.15 ± 2.33 | −0.62 |  | 
2 | O=C(/C=C/c1ccco1)c1ccc(O)cc1 [a10, (E)-3-(furan-2-yl)-1-(4-hydroxyphenyl) prop-2-en-1-one] | 23% | 10% | 2% | 24 | 23 | 3.03 ± 0.88 | 2.39 ± 1.08 | 17.15 ± 0.32 | 17.15 ± 0.32 | −0.06 | 2.25 ± 0.38 | 
3 | CN(C)c1ccc(/C=C/C=C/C(=O)c2ccc(OCCCCOc3ccc(C(=O)/C=C/C=C/c4ccc(N(C)C)cc4)cc3)cc2)cc1 [eiii, (2E,2′E,4E,4′E)-1,1′-((butane-1,4-diylbis(oxy))bis(4,1-phenylene))bis(5-(4-(dimethylamino)phenyl)penta-2,4-dien-1-one)] | No | no | No | 47 | 27 |  |  |  |  | −0.07 |  | 
4 | O=C(/C=C/c1ccccc1)c1ccc(OCCCOc2ccc(C(=O)/C=C/c3ccccc3)cc2)cc1 [c13, (2E,2′E)-1,1′-((propane-1,3-diylbis(oxy))bis(4,1-phenylene))bis(3-phenylprop-2-en-1-one)] | No | no | No | 71 | 76 |  |  |  |  | 0.34 |  | 65
5 | CC(/C=C/C(=O)c1ccccc1O)=C\c1ccccc1 [b8, (2E,4E)-1-(2-hydroxyphenyl)-4-methyl-5-phenylpenta-2,4-dien-1-one] | 17% | 3% | 12% | 25 | 25 |  |  |  |  | −0.79 |  | 
6 | O=C(/C=C/C=C/c1ccc([N+](=O)[O-])cc1)c1ccccc1O [b11, (2E,4E)-1-(2-hydroxyphenyl)-5-(4-nitrophenyl) penta-2,4-dien-1-one] | 4% | 2% | No | 31 | 31 |  |  |  |  | −0.91 |  | 
7 | O=C(/C=C/C(Br)=C\c1ccccc1)c1ccccc1O [b9, (2E,4E)-4-bromo-1-(2-hydroxyphenyl)-5-phenylpenta-2,4-dien-1-one] | 20% | 8% | No | 17 | 16 |  |  |  |  | −0.37 |  | 
8 | O=C(/C=C/c1ccccc1)c1ccc(O)cc1 [a13, (E)-1-(4-hydroxyphenyl)-3-phenylprop-2-en-1-one] | 7% | 3% | No | 38 | 23 |  |  |  |  | −0.73 |  | 
9 | O=C(/C=C/c1ccccc1)c1ccccc1O [b13, (E)-1-(2-hydroxyphenyl)-3-phenylprop-2-en-1-one] | 10% | 0% | No | 15 | 14 |  |  |  |  | 0.43 |  | 
10 | O=C(/C=C/C=C/c1ccccc1)c1ccccc1O [b7, (2E,4E)-1-(2-hydroxyphenyl)-5-phenylpenta-2,4-dien-1-one] | 13% | 0% | 5% | 29 | 29 |  |  |  |  | −0.85 |  | 
